Patent publication US20200367756A1, “METHOD AND SYSTEM FOR IN VIVO DETECTION OF ADIPOSE TISSUE BROWNING” (Agency for Science, Technology and Research, priority 2018, published 2020)
“Also recorded” adds a separate entry of the source.

Key:
[1] = tested on: WAT (browning of white adipose tissue); assay: In vivo DRS measurement of lipid fraction (browning marker) in adipose tissue; parameters: species or system BALB/c nude mice
Text: In particular, FIG. 5 depicts a schematic drawing of an example setup of in vivo DRS measurement system 500 for obtaining (e.g., generating or measuring) diffuse reflectance spectrum information (raw diffuse reflectance spectrum information) in a mouse model with partial skin incision using DRS spectroscopy in the NIR II optical window. In this regard, browning was induced in mice for 7 days by β-adrenergic administration followed by DRS measurement in the 1050 to 1350 nm range using an excitation-collection fiber probe 506 with source-detector fiber separations 508 configured to achieve a desired or sufficient depth of interrogation. The measured diffuse reflectance spectrum information obtained at the adipose tissue site was then processed according to various example embodiments to extract or derive water and lipid chromophore fractions (or water and lipid proportions or ratios) at the adipose tissue site in the 1050 nm to 1350 nm wavelength range. The water and lipid chromophore fractions were estimated from the measured DRS spectra by employing a lookup table (LUT) based on inverse Monte-Carlo modelling. In other words, the measured DRS spectra at the adipose tissue site is spectrally unmixed particularly for water and lipid chromophores using the Monte-Carlo based LUT within the wavelength range of 1050 nm to 1400 nm, or more preferably, 1050 nm to 1350 nm. […]

[2] = tested on: Ucp1; assay: Western blot analysis of UCP1 protein in adipose tissues of treated mice; type: in vivo, BALB/c nude mice; conditions: loading control β-ACTIN, vs saline WAT, hydrate
Procedure: (§1) Mice (n=4; each group) were injected daily with either CL 316, 243 hydrate (1 mg/kg body weight intraperitoneally in test group (CL) or equal volume of saline in control (C) group animals for 7 days. After the in vivo DRS experiment, the mice was euthanized and fresh WAT tissues in control (C) and CL group were extracted and immediately frozen for RNA and protein expression analyses. WAT from the inguinal region and BAT from the interscapular region were stored in 10% normal buffered formalin (NBF) for hematoxylin and eosin (H&E) staining and Immunohistochemistry (IHC). BAT tissues extracted from mice injected with saline is marked as C BAT while BAT from CL injected mice as CL BAT. Similarly, WAT and beige refer to the WATs in saline (control) and CL injected group, respectively.
In various example embodiments, total protein lysates isolation from adipose tissues extracted from mice administered with either saline or CL (n=4, each group) was done in RadioImmunoPrecipitation Assay (RIPA) lysis buffer and quantified using the Biorad assay. Equal volume of proteins were loaded onto 10% Sodium Dodecyl Sulfate-Polyacrylamide Gel Electrophoresis (SDS-PAGE) followed by transfer to the PolyVinyliDene Fluoride (PVDF) membrane. […]

[3] = tested on: Ucp1; assay: UCP1 immunohistochemistry (IHC) of WAT and BAT of treated mice; type: in vivo, BALB/c nude mice
Procedure: as §1
(§2) In various example embodiments, H&E staining and UCP1 IHC were performed by the Advanced Molecular Pathology Laboratory (AMPL) at the Institute of Molecular and Cell Biology (IMCB), A*STAR, according to standard operating procedures. 1:50 dilution of UCP1 antibody (Abcam) at pH 6.0 was used for UCP1 IHC. All the images were obtained by using Olympus microscope equipped with DS-L3+Filc camera with a ×20 objective lens. Software ImageJ was used to analyse the images.

[4] = tested on: WAT and BAT adipocytes; assay: H&E staining of WAT and BAT of treated mice; type: in vivo, BALB/c nude mice
Procedure: as §1, §2

[5] = tested on: Ucp1; assay: Real-Time qPCR of Ucp1 mRNA in adipose tissues of treated mice; type: in vivo, BALB/c nude mice; conditions: normalized to Gapdh mRNA
Procedure: as §1
In various example embodiments, total RNA was extracted with the RNeasy Lipid Tissue Mini Kit (Qiagen, Hilden, Germany) according to the manufacturer's instruction and Real-Time PCR was conducted using UCP1 primer pair UCP1_F: 5′-GGCCTCTACGACTCAGTCCA-3′ and UCP1_R: 5′-TAAGCCGGCTGAGATCTTGT-3′. GAPDH was used to normalize the relative mRNA expression by using a primer pair GAPDH_F: 5′-CAA GGT CAT CCA CTT-3′ and GAPDH_R: 5′-GGC CAT CCA CAG TCT GG-3′. The results are represented as mean±SE (n=4 in each group).

[6] = inguinal WAT, vs saline control WAT, hydrate
[7] = interscapular BAT, CL vs saline

Q: `C[C@H](Cc1ccc2c(c1)OC(C(=O)[O-])(C(=O)[O-])O2)NC[C@H](O)c1cccc(Cl)c1.[Na+].[Na+]` [CL, CL 316, 243 hydrate] was tested. Which “lipid fraction (SLW) of beige adipose tissue (CL treated WAT)” value ([1]; mice, 1 mg/kg intraperitoneally daily for 7 days, DRS 1050 to 1350 nm, MCLUT unmixing, control WAT 0.70±0.095, BAT 0.518±0.112) did it give?
A: The value was 0.628±0.076 a.u.

Q: What about the “extent of WAT browning indicated by calculated SLW” value ([1]; over a period of 7 days, CL treated animals) of the same compound?
A: The value was “about 50%”.

Q: And the “UCP1 protein expression in WAT (beige)” value [2]?
A: Its value is “significantly induced; also recorded: higher expression”.

Q: And the “UCP1 IHC signal in WAT (beige)” value [3, 6]?
A: Its value is “significant emergence of UCP1 expression; also recorded: increased UCP1 staining”.

Q: And the “UCP1 IHC signal in BAT” value [3, 7]?
A: Its value is “not changed”.

Q: What about the “adipocyte morphology in WAT (beige), H&E staining” value [4, 6] of the same compound?
A: Its value is “subpopulation of multilocular adipocytes are emerging”.

Q: And the “adipocyte appearance in BAT, H&E staining” value [4, 7]?
A: The value was “appearance was not changed”.

Q: And the “Ucp1 mRNA expression in BAT” value ([5]; BAT (CL) vs BAT (C))?
A: Its value is “did not significantly change”.

Q: And the “Ucp1 mRNA expression in WAT (beige) relative to saline control (WAT)” value ([5]; 1 mg/kg i.p. daily, 7 days)?
A: Its value is “significantly enhanced”.
